Measured values from US8563472B2 (priority 2010, dated 2013).

Experiments:
[1] = system: Phytophthora infestans; format: in vivo; settings: hydrazone 50 ppm with 50 μM CuCl2.2H2O, applied 24 h before inoculation, tomato plants, assessed 7 d after inoculation
[2] = system: Leptosphaeria nodorum (LEPTNO); experiment: In vitro fungitoxicity assay against Leptosphaeria nodorum in copper-minus / copper-plus liquid medium; format: cell-based; settings: test compound 0.05 μg/mL, 25° C., 72 h; for inhibition of growth at 0.05 µg/mL: Parastagonospora nodorum, copper-minus medium, growth by light scattering, read-out: LEPTNO % Inhn. Minus Copper Observed; for LEPTNO % Inhn. Plus Copper Observed: copper-plus medium (CuCl2.2H2O)
Experimental: In vitro fungitoxicity assays against Leptosphaeria nodorum (LEPTNO) were conducted using the liquid growth medium described by Coursen and Sisler (American Journal of Botany 1960, 47, 541-549) except that copper micronutrient, normally included as CuSO4, was omitted. The medium, termed “copper-minus”, was prepared by dissolving 10 g glucose, 1.5 g K2HPO4, 2 g KH2PO4 and 1 g (NH4)2SO4 in 1 liter of deionized water and treating the solution with 0.5 g Chelex 100 resin (Bio-Rad Analytical grade, 50-100 mesh, sodium form, cat#142-2822) by stirring at room temperature for 1 h. MgSO4.7H2O (0.5 g) was added, and stirring was continued for a further hour. Trace elements (minus CuSO4), and vitamins described by Coursen and Sisler were added from concentrated stock solutions and the entire medium was sterilized by filtration. Medium containing copper was prepared by adding CuCl2.2H2O to the copper-minus medium at 20 μM. […] Copper-minus medium (100 μL) was added to one of the wells and copper-plus medium to the second well. Control wells, included for each medium, received 1 μL DMSO and 100 μL of medium.
LEPTNO was grown on potato dextrose agar in 9 cm diameter petri dishes for 7 days (d). Sterile deionized water (20 mL) was added to a culture plate and spores suspended by scraping the surface gently with a sterile plastic loop. The resulting suspension was filtered through a double layer of sterile cheesecloth. […] The spores were resuspended in copper-minus medium, and the suspension adjusted to 2×10^5 spores per mL. Microtiter plates were inoculated with 100 μL of this spore suspension and the plates incubated at 25° C. for 72 h before assessing fungal growth by measuring light scattering in a NepheloStar plate reader. Growth inhibition was determined by comparing growth in the presence of test compound with growth in control wells lacking test compound.

SMILES | TLB % control [1] | inhibition of growth at 0.05 µg/mL [2] | LEPTNO % Inhn. Plus Copper Observed [2] | melting point
Cn1cc(C(=O)N/N=C/c2cc(Cl)cc(Cl)c2O)c2ccccc21 [Compound 15] | 12% | 16.3% | 98.1% | 215 to 217 °C
O=C(N/N=C/c1cc(Br)cc(Br)c1O)c1cnn(-c2ccc(Cl)cc2)c1C(F)(F)F [Compound 29] | 47% | 7.8% | 57.6% | 237 to 238 °C
O=C(N/N=C/c1ccccc1O)c1snnc1-c1ccccc1 [Compound 22] | 56% | 9.6% | 77.9% | 191 to 192 °C
C/C(=N\NC(=O)c1csc(C)c1)c1cc(Br)cc(Br)c1O [Compound 51] | 88% | 2.2% | 98% | 237 to 239 °C
